Experiment [1] deals with MOLM14. In words: Proliferation assay A (spheroid assay) MOLM14. The class given is cell-based, human. As to conditions: Homo sapiens, MOLM-14, 192 h, MOLM14 cells, 8 d, AUC of confluence against time, absolute IC50; read-out: (3a) Spheroid assay MOLM14 (IC50(μM)) Assay A. In outline:
(§1)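 Spheroid growth in ultra-low-attachment round-bottom wells (1,500 MV-4-11, 300 MOLM14 or 750 K562 cells), compound titration at 0.3% DMSO, 8 d at 37° C. Confluence imaged every 4 h; AUC from t=0 baseline expressed as % of DMSO control and fitted for absolute IC50.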

In another experiment the target is T1, menin (Homo sapiens, UniProt O00255, T541A).
T1 construct: Menin (a.a. 1-610-6×his tag)
T1 sequence (O00255 with tags, fused parts or gaps T541A): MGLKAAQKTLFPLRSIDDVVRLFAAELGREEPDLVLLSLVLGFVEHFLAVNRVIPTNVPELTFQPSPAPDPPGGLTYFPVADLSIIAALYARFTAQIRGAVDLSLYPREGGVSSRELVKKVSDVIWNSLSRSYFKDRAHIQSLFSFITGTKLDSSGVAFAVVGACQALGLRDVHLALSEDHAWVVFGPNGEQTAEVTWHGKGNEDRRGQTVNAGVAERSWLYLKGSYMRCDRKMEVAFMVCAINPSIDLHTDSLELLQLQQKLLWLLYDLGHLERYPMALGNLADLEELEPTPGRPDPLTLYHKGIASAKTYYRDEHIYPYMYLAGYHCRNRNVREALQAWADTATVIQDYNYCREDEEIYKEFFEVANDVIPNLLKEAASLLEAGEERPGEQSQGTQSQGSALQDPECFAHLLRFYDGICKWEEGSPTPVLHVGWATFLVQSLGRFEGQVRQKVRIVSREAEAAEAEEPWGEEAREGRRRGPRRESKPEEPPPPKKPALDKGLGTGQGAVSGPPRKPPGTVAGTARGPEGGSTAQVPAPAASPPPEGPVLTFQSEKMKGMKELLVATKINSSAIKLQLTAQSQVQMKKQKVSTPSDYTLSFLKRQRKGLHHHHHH
Kind of experiment: Menin/MLL homogenous time-resolved fluorescence (HTRF) assay. It counts as binding. The procedure, abridged:
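Terbium-labeled menin (aa 1-610, His-tagged; […]) preincubated 5 min with compound, then 75 nM FITC-MBM1 peptide for 15 min, ambient, Tris pH 7.5, 0.5% DMSO. HTRF 520/490 ratio; 11-point 3-fold titration; IC50 from % inhibition fit.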
Background: Time-resolved FRET reads energy transfer from a long-lived donor to a nearby acceptor.

The subject of experiment [2] is K562. In words: Proliferation assay A (spheroid assay) K562 control cell line. Conditions: Homo sapiens, 192 h; K562 cells (MLL wildtype control), 8 d, AUC of confluence against time; read-out: (3a) Spheroid assay K562 Assay A. The class given is cell-based. The method, then:
3a) Proliferation Assay A
(§2) The anti-proliferative effect of menin/MLL protein/protein interaction inhibitor test compounds was assessed in human leukemia cell lines. The cell lines MV-4-11 and MOLM14 harbor MILL translocations and express the MILL fusion proteins MLL-AF4 and MLL-AF9, respectively, as well as the wildtype protein from the second allele. […] K562 was used as a control cell line containing two MLL wildtype alleles in order to exclude compounds that display general cytotoxic effects.
MV-4-11 and MOLM14 were cultured in RPMI-1640 (Sigma Aldrich) supplemented with 10% fetal bovine serum (HyClone), 2 mM L-glutamine (Sigma Aldrich) and 50 μg/ml gentamycin (Gibco). […]
In order to assess the anti-proliferative effects, 1,500 MV-4-11, 300 MOLM14 or 750 K562 cells were seeded in 200 μl media per well in 96-well round bottom, ultra-low attachment plates (Costar, catalogue number 7007). […] Spheroid like growth was monitored in real-time by live-cell imaging (IncuCyteZOOM, Essenbio, 4× objective) acquiring one image every four hours for 8 d. Confluence (%) as a measure of spheroid size was determined using an integrated analysis tool.
In order to determine the cumulative effect of the test compounds over time, the area under the curve (AUC) in a plot of confluence against time was calculated. […]

Experiment [3] has as its system MV-4-11. In words: Proliferation assay A (spheroid assay) MV-4-11. Conditions: Homo sapiens, MV4-11, 192 h, MV-4-11 cells, 8 d, AUC of confluence against time, absolute IC50; read-out: (3a) Spheroid assay MV-4-11 (IC50(μM)) Assay A. The class given is cell-based, human. In outline: as §1
Experiment [4] deals with MV-4-11. Kind of experiment: Proliferation assay B (spheroid assay) MV-4-11. As to conditions: MV-4-11 cells, confluence at day 8, absolute IC50, read-out: (3b) Spheroid assay MV-4--11 (IC50(μM)) Assay B. The class given is cell-based, human. The procedure, abridged:
(§3)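 Leukemia cells grown as spheroids in ultra-low-attachment round-bottom wells with compound at 0.3% DMSO for 8 d at 37 °C. Confluence imaged at day 8 as spheroid size, normalized between DMSO and 1 μM staurosporine controls; absolute IC50 from sigmoidal fit with bounds fixed at 0 and 100%.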

Experiment [5] has as its system MOLM14. In words: Proliferation assay B (spheroid assay) MOLM14. As to conditions: MOLM14 cells, confluence at day 8, absolute IC50, read-out: (3b) Spheroid assay MOLM14 (IC50(μM)) Assay B. It counts as cell-based, human. In outline:
as §3

Experiment [6] deals with K562. In words: Proliferation assay B (spheroid assay) K562 control cell line. It counts as cell-based. Conditions: Homo sapiens, 192 h; K562 cells (MLL wildtype control), confluence at day 8; read-out: (3b) Spheroid assay K562 Assay B. As to the method:
3b) Proliferation Assay B
as §2
MV-4-11 and MOLM14 were cultured in RPMI-1640 (Sigma Aldrich) supplemented with 10% fetal bovine serum (HyClone), 2 mM L-glutamine (Sigma Aldrich) and 50 μg/ml gentamycin (Gibco). K562 were propagated in RPMI-1640 (Sigma Aldrich) supplemented with 20% fetal bovine serum (HyClone), 2 mM L-glutamine (Sigma Aldrich) and 50 μg/ml gentamycin (Gibco).
In order to assess the anti-proliferative effects, 1,500 MV-4-11, 300 MOLM14 cells or 750 K562 cells were seeded in 200 μl media per well in 96-well round bottom, ultra-low attachment plates (Costar, catalogue number 7007). Cell seeding numbers were chosen based on growth curves to ensure linear growth throughout the experiment. Test compounds were added at different concentrations and the DMSO content was normalized to 0.3%. Cells were incubated for 8 d at 37° C. and 5% CO2. Spheroid like growth was measured in real-time by live-cell imaging (IncuCyteZOOM, Essenbio, 4× objective) acquiring images at day 8. Confluence (%) as a measure of spheroid size was determined using an integrated analysis tool.
In order to determine the effect of the test compounds over time, the confluence in each well as a measure of spheroid size, was calculated. Confluence […] at the beginning of the experiment (t=0) was used as baseline for the calculation.
Absolute IC50 values were calculated as percent change in confluence as follows:
LC=Low Control: cells treated with 1 μM of the cytotoxic agent staurosporin
HC=High Control: Mean confluence (%) (DMSO treated cells) % Effect=100−(100*(Sample−LC)/(HC−LC))
To determine the IC50 a curve is fitted to the plot of % Effect vs Log 10 compound concentration using a sigmoidal fit with a variable slope and fixing the maximum to 100% and the minimum to 0%.

Setting [7] is: location 1, read-out: (2) location 1 Menin HTRF assay (IC50 (nM)).
Where [8] appears, read: location 2, read-out: (2) location 2 Menin HTRF assay (IC50 (nM)).

Like-named read-outs stand apart in the source and are kept apart here. A value given as a limit tells only on which side of the number the result lay.

Among the data in patent US11396517B1, “Exo-aza spiro inhibitors of menin-MLL interaction” (Janssen Pharmaceutica NV, priority 2017, dated 2022) are IC50 values, retold here.

`FC(F)(F)Cc1cc2c(N3CC4(CC[C@@H](NCc5ccccc5)C4)C3)ncnc2s1` (single isomer, unassigned) [Compound 47]: the IC50 in the experiment on MOLM14 [1] is 1.02 µM; at menin (setting [7]) it was 15.5 nM; with K562 [2], > 15000 nM; with MV-4-11 [3], 0.14 µM.
On to `CNC(=O)c1ccc(NC2CC3(CCN(c4ncnc5sc(CC(F)(F)F)cc45)C3)C2)cc1OCCN(C)C` (single isomer, unassigned) [Compound 77], for which the IC50 with MV-4-11 [4] (Homo sapiens, MV4-11, 192 h) is 0.19 µM; on menin (setting [8]), 1.8 nM; in the experiment on MOLM14 [5] (Homo sapiens, MOLM-14, 192 h), 0.63 µM; with K562 [6], 7850 nM.
Take `CN1CC=C(c2cc(NC3CC4(CCN(c5ncnc6sc(CC(F)(F)F)cc56)C4)C3)ccc2C(C)(C#N)C#N)CC1` (single isomer, unassigned) [Compound 246]: the IC50 was 0.26 µM with MV-4-11 [4], 206 nM on menin (setting [8]), 0.13 µM in the experiment on MOLM14 [5] and 3970 nM with K562 [6].
Consider `FC(F)(F)Cc1cc2c(N3CCC4(CC(NCc5ccccc5)C4)C3)ncnc2s1` (stereo not shown) [Compound 48], for which the IC50 in the experiment with MOLM14 [1] was 1.58 µM; at menin (setting [7]), 12 nM; in the experiment on K562 [2], > 15000 nM; in the experiment on MV-4-11 [3], 0.35 µM.
